One may read the IC50 as the concentration needed to halve the response being measured. The low end stands for greater potency, the high end for weaker potency.

The target in assay [1] is T1, Protein mono-ADP-ribosyltransferase PARP15 (Homo sapiens, UniProt Q460N3).
T1 sequence (Q460N3 whole entry): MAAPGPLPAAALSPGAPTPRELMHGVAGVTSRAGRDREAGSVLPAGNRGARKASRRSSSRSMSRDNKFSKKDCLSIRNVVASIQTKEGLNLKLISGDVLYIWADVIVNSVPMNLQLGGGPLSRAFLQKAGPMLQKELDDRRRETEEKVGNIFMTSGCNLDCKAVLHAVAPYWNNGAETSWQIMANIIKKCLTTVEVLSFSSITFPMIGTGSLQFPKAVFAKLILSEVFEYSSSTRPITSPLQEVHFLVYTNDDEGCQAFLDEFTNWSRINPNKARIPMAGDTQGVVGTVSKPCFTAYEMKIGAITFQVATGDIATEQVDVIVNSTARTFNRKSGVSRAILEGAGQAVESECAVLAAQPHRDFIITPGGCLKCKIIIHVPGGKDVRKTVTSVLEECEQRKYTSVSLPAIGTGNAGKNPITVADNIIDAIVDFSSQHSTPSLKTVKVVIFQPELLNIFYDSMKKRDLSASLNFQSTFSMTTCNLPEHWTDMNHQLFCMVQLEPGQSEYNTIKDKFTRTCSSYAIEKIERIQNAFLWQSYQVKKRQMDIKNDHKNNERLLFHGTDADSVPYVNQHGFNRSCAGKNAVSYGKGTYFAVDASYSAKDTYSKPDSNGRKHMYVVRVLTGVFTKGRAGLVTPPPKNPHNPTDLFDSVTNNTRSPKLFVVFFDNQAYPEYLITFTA
The assay can be described thus: Inhibition of N-terminal his-tagged human PARP15 expressed in Escherichia coli Rosette2 (DE3).

For assay [2], the target named is Poly [ADP-ribose] polymerase 1 (Homo sapiens, UniProt P09874). The experiment in a line: Inhibition of N-terminal his-tagged human PARP1 expressed in Escherichia coli Rosette2 (DE3).
Chain of Poly [ADP-ribose] polymerase 1 (P09874 whole entry): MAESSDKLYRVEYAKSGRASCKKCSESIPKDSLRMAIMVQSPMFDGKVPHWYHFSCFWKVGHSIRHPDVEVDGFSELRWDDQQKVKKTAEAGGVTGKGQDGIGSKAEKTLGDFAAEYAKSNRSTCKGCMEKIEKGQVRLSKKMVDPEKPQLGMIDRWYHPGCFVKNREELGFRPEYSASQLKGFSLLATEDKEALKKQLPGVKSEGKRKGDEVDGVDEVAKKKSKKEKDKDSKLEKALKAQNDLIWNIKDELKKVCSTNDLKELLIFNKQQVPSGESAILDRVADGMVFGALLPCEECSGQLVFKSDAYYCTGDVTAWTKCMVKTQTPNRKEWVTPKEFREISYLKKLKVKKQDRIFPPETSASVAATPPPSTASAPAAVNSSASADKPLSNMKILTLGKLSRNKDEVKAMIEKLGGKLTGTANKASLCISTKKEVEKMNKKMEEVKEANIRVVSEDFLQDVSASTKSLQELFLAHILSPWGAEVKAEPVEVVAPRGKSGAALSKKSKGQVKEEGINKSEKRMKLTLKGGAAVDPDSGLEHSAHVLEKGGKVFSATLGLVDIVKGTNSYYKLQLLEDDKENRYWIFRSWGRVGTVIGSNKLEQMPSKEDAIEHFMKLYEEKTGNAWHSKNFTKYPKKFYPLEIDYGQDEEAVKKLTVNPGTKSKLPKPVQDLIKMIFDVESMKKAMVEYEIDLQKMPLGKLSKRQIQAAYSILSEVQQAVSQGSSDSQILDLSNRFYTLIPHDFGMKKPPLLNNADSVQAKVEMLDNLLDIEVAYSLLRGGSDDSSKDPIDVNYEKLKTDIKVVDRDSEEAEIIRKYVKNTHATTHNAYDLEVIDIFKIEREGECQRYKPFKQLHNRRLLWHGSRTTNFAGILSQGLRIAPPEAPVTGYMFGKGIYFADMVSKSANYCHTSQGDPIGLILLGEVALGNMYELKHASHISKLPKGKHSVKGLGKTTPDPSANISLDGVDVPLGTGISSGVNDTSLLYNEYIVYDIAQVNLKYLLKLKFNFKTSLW
The target in assay [3] is Protein mono-ADP-ribosyltransferase PARP14 (Homo sapiens, UniProt Q460N5). The assay can be described thus: Inhibition of N-terminal his-tagged human PARP14 expressed in Escherichia coli Rosette2 (DE3).
Chain of Protein mono-ADP-ribosyltransferase PARP14 (Q460N5 whole entry): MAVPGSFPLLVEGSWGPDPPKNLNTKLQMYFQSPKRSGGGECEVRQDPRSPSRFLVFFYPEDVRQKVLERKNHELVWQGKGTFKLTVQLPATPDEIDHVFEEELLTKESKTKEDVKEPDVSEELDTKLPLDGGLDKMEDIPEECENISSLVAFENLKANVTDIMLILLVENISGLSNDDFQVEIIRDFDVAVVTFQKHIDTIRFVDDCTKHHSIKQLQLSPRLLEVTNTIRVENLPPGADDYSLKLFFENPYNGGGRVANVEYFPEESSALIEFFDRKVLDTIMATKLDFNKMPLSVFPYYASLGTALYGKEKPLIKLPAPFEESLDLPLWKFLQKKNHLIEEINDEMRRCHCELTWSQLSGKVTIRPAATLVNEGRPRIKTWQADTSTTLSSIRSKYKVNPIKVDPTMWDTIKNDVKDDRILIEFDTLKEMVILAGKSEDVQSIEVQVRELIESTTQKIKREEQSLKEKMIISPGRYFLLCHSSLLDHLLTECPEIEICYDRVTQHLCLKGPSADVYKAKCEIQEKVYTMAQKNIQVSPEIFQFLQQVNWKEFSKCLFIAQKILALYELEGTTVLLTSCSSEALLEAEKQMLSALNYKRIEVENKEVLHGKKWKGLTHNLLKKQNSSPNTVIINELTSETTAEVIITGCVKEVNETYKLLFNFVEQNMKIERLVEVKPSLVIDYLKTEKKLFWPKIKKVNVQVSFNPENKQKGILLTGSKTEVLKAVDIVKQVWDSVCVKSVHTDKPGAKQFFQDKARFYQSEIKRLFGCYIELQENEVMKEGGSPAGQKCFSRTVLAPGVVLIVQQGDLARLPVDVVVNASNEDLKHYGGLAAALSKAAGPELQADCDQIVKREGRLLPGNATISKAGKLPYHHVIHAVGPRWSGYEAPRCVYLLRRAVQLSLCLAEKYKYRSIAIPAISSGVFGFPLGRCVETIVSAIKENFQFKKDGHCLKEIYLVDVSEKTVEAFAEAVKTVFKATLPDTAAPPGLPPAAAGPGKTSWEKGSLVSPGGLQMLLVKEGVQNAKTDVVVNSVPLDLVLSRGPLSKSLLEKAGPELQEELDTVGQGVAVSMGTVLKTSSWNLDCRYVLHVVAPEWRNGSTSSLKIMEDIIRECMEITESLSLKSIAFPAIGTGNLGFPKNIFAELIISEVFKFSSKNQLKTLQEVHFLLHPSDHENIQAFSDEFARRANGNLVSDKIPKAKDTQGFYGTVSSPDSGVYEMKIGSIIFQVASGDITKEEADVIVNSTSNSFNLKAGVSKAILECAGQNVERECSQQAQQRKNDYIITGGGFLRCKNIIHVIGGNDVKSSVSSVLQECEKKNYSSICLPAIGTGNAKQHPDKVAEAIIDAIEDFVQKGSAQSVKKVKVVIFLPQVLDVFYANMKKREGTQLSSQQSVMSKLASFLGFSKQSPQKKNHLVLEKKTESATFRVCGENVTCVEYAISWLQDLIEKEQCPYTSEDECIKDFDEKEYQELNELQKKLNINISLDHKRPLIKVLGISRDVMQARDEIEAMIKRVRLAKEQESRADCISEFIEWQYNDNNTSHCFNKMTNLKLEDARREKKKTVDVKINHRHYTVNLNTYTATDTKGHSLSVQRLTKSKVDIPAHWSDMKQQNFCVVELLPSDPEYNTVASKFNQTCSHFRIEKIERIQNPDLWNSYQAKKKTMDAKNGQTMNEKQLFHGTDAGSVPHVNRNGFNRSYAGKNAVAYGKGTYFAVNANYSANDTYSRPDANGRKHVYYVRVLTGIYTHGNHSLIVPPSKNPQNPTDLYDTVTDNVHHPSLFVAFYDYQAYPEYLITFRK
For assay [4], the target named is T2, Protein mono-ADP-ribosyltransferase PARP10 (Homo sapiens, UniProt Q53GL7).
T2 sequence (Q53GL7 whole entry): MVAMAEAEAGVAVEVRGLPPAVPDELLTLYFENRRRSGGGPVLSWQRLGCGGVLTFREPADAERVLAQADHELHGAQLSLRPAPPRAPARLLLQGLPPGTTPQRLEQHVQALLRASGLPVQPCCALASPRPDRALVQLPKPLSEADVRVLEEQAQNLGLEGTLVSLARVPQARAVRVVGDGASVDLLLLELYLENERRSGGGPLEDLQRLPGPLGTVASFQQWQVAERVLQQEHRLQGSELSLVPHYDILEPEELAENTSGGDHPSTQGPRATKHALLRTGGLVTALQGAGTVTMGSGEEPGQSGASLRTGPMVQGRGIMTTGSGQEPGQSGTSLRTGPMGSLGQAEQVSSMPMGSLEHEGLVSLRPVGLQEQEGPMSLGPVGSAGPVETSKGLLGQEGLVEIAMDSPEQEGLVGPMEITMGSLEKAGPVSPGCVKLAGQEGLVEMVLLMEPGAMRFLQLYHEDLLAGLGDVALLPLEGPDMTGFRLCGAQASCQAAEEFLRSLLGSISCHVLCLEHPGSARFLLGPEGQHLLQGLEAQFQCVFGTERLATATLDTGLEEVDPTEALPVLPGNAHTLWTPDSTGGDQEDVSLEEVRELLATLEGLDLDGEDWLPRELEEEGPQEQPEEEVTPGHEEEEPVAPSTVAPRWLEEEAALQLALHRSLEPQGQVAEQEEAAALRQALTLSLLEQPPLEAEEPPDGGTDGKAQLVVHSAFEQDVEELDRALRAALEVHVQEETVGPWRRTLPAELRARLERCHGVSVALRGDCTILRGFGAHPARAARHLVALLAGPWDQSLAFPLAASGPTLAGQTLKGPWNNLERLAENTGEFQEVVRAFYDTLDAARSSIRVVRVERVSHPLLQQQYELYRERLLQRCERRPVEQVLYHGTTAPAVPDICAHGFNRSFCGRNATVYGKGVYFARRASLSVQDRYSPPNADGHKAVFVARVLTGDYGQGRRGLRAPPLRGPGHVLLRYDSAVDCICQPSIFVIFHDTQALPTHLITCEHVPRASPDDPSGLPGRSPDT
The experiment in a line: Inhibition of C-terminal his-tagged human PARP10 expressed in Escherichia coli Rosette2 (DE3).

Where only a bound is given, the exact number is not on record here.

For the molecule `NC(=O)c1ccc(Oc2cccc(C(N)=O)c2)cc1`, the 50% inhibitory concentration (IC50) was 1.7 µM in assay [1], over 100 µM in assay [2], 41 µM in assay [3] and 0.48 µM in assay [4].
On the same counts, the results for `N#Cc1ccc(Oc2ccc(C(N)=O)cc2)cc1` are 11 µM, over 100 µM, over 100 µM and 3.64 µM.

Values taken from ChEMBL document CHEMBL5120882, “Medicinal Chemistry Perspective on Targeting Mono-ADP-Ribosylating PARPs with Small Molecules” (J Med Chem, 2022).
